Here are results for 27 compounds from patent US9938281B2 (Merck Sharp & Dohme Corp., priority 2012, dated 2018).

A value given as a limit tells only on which side of the number the result lay.

In one test the target is T1, PI3K-delta (Homo sapiens, UniProt O00329).
T1 construct: purchased Upstate; Millipore 14-604
The test can be described thus: HTRF PI3K biochemical assay, delta isoform. Particulars: form screened (neutral or TFA salt) given, read-out: PI3Kdelta IC50. On the technique in general: In TR-FRET formats the signal depends on donor and acceptor labels being close together.

The next test concerns the target T2, PI3K-alpha (Homo sapiens, UniProt P42336).
T2 construct: purchased Upstate; Millipore 14-602
Put plainly: HTRF PI3K biochemical assay, alpha isoform. To be noted: ratio PI3K-alpha IC50 value / PI3K-delta IC50 value.

T2 sequence (P42336 whole entry): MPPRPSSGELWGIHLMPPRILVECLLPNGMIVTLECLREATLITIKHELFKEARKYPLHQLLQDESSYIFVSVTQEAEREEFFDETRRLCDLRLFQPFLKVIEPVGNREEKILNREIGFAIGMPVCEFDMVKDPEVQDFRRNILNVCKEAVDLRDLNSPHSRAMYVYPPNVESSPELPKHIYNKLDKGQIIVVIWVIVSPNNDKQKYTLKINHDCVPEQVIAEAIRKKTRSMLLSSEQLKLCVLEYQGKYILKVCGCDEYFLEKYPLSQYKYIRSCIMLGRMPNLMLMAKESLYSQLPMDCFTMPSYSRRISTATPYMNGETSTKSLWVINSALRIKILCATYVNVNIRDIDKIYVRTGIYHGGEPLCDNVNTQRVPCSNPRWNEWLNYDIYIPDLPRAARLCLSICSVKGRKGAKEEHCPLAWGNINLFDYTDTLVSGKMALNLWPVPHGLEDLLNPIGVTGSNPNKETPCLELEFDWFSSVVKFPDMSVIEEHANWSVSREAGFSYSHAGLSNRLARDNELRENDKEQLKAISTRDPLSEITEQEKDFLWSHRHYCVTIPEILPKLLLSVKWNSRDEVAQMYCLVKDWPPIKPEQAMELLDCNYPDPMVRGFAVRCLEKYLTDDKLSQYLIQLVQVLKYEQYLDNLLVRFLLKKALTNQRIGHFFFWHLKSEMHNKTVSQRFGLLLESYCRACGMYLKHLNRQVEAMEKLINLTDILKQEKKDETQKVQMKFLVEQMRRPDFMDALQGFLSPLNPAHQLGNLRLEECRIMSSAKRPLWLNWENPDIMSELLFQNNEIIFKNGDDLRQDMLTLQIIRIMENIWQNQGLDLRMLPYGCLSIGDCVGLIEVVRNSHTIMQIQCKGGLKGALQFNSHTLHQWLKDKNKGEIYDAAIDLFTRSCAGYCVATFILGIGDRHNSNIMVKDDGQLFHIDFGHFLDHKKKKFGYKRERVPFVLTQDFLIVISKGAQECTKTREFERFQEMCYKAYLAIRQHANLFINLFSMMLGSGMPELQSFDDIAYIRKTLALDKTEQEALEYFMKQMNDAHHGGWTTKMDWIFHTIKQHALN
T2 sequence (P27986 whole entry partner): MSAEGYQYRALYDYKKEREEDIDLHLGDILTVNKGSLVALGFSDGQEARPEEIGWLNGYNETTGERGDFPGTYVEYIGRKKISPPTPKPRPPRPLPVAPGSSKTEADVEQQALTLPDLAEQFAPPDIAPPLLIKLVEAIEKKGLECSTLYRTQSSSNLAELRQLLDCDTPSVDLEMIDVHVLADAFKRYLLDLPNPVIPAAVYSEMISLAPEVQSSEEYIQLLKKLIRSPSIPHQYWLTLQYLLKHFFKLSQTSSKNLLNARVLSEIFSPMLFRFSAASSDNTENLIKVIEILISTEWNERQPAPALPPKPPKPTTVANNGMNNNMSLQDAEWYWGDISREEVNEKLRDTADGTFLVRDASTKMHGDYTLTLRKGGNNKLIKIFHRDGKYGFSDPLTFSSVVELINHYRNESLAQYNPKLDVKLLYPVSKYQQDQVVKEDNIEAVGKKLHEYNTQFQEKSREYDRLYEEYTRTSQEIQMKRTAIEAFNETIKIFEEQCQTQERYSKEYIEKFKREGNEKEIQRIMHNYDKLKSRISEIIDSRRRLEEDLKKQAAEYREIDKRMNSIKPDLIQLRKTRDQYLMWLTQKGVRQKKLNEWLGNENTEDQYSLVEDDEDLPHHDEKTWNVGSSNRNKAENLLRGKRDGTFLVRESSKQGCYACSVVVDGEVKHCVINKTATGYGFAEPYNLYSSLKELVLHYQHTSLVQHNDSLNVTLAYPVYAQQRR
T1 sequence (O00329 whole entry): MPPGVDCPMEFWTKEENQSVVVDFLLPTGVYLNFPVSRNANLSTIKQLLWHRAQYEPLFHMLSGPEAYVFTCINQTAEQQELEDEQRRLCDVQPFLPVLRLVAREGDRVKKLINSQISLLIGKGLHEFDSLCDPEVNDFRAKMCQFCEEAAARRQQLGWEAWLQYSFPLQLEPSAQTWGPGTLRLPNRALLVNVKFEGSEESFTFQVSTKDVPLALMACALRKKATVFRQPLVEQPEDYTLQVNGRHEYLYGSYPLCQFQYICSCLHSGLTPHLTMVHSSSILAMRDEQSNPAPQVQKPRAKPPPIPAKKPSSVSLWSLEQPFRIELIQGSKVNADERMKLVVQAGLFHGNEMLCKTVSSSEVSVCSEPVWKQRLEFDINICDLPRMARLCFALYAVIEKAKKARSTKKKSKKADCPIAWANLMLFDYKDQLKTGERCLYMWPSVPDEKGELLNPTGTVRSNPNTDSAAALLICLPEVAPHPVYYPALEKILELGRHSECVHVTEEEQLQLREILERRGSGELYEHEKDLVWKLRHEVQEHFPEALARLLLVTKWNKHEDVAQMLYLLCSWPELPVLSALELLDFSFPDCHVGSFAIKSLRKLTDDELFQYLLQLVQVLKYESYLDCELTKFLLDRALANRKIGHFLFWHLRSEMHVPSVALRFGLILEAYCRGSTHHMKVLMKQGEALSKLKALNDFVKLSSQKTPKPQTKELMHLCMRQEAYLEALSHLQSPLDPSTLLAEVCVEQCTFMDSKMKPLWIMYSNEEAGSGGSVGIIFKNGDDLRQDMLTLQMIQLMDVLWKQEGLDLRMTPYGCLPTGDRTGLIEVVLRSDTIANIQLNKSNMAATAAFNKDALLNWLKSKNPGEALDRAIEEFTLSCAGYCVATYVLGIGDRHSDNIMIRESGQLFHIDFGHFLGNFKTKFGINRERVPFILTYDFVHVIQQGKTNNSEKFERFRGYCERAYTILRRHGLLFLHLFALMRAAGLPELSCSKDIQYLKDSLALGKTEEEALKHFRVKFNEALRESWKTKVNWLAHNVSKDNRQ
T1 sequence (P27986 whole entry partner): as the sequence (P27986 whole entry partner) above
Excerpt for PI3K-delta: HTRF PI3K Biochemical Assay to Measure Intrinsic Potency of Compound Inhibitors
This assay was developed and further optimized from a kit produced by Upstate (Millipore catalog #33-047) and has been configured for HTS and SAR screening. Briefly, this procedure exploits the exquisite specificity and high affinity binding of enzyme reaction substrate phosphatidyl(3,4,5)triphosphate (PIP3) to the GRP1 pleckstrin homology (PH) domain to generate the signal. In the absence of PIP3, an HTRF (Homogeneous Time-Resolved Fluorescence energy transfer) complex is formed consisting of europium (Eu)-labeled anti-GST, GSTtagged GRP1-PH domain, biotin-PIP3 and streptavidin conjugated APC. The native PIP3 produced by PI3-Kinase activity disrupts in a competitive manner the biotin-PIP3 from the PH domain, resulting in the loss of energy transfer (HTRF complex) and a decrease in the signal. The format of this assay is the same for all 4 isoforms of PI3K; the differences lie in the concentration of enzyme used to achieve robust assay window. The alpha, beta, and delta assays are run at 0.5, 1, and 0.3 nM enzymes and the gamma assay is run at 5 nM enzyme. The ATP concentration is 100 uM in the alpha, beta, and delta assays and 50 uM ATP in the gamma assay. All reactions are run at 5 uM PIP2.
Compounds are serially diluted (3-fold in 100% DMSO) across a 384-well polypropylene source plated from column 3 to column 12 and column 13 to column 22, to yield 10 concentration dose response for each test compound. Columns 1, 2, 23 and 24 contain either only DMSO or pharmacological known control inhibitor.
The PI3-Kinase biochemical assay was optimized using the HTRF kit provided by Upstate (Millipore). The assay kit contains six reagents: 1) 4× Reaction Buffer; 2) native PIP2 (substrate); 3) Stop (EDTA); 4) Detection Mix A (Streptavidin-APC); 5) Detection Mix B (Eu-labeled Anti-GST plus GST-tagged PH-domain); 6) Detection Mix C.
PI3Kinase Reaction Buffer is prepared by dilution the stock 1:4 with de-ionized water. […] Enzyme addition and compound pre-incubation are initiated by the addition of 1.25 ul of PI3K (at twice its final concentration) in the 1× reaction buffer to all wells using a BioRaptor. Plates are incubated at room temperature for 15 minutes. Reactions are initiated by addition of 1.25 ul of 2× substrate solution (PIP2 and ATP in 1× reaction buffer) using BioRaptor. Plates are incubated in humidified chamber at room temperature for one hour. Reactions are quenched by addition of 0.625 uL of stop solution to all wells using the BioRaptor. The quenched reactions are then processed to detect product formation by adding 0.625 uL of Detection Solution to all wells using the BioRaptor (Detection mix C, Detection Mix A, and Detection Mix B combined together in an 18:1:1 ratio prepared 2 hours prior to use).
The loss of the HTRF signal is due to the displacement of biotinylated-PIP3 from the PH domain by the PI3K-dependent conversion of PIP2 to PIP3. This loss of signal is nonlinear with respect to both increasing product and time. This non-linear detection will impact accuracy of IC50 calculations; therefore, there is a need for a correction factor to obtain more accurate IC50 values. This correction is derived from a PIP3 standard curve run in a separate assay plate. All data were calculated using the ratio of acceptor (APC) to donor (Europium) fluorescence in each well of the assay plate. […] An IC50 was then calculated fitting the % inhibition data to the equation: % inhibition=min+(Max−min)/1+([inhibitor]/IC50)^n) where min is the % inhibition with inhibitor, max is the signal in DMSO control, and n is the Hill slope.

Turning to `CCC(=O)N1CC[C@H](Nc2ncnc3c2nc(CC(C)C)n3CC)C1` [Compound 7-2, 9-ethyl-8-(2-methylpropyl)-N-[(3S)-1-propanoylpyrrolidin-3-yl]-9H-purin-6-amine], the IC50 at PI3K-delta was 51 nM. The “Selectivity versus PI3Kalpha” value on PI3K-alpha is reported as greater than 10.
Consider `CCn1c(-c2cnc(C)nc2)nc2c(N[C@H]3C[C@H](C(=O)NC)N(C(=O)C4CC4)C3)ncnc21` [Compound 15-3, (4S)-1-(cyclopropylcarbonyl)-4-{[9-ethyl-8-(2-methylpyrimidin-5-yl)-9H-purin-6-yl]amino}-N-methyl-D-prolinamide], for which the IC50 on PI3K-delta was found to be 12 nM. Besides, at PI3K-alpha, the “Selectivity versus PI3Kalpha” value is listed as greater than 10.
Regarding `CCn1c(-c2cnc(C)nc2)nc2c(N[C@H]3CCN(C(=O)C4CC(=O)N(C(C)C)C4)C3)ncnc21` (mixture of isomers) [Compound 2-81, (R and S)-4-{[(3S)-3-{[9-ethyl-8-(2-methylpyrimidin-5-yl)-9H-purin-6-yl]amino}pyrrolidin-1-yl]carbonyl}-1-(1-methylethyl)pyrrolidin-2-one], the IC50 on PI3K-delta was 13 nM. Also, on PI3K-alpha, the “Selectivity versus PI3Kalpha” value was greater than 10.
For `CCn1c(-c2cnc(C)nc2)nc2c(N[C@H]3CCN(C(=O)[C@H]4C[C@@H](OC)C4)C3)ncnc21` [Compound 2-39, 9-ethyl-N-{(3S)-1-[(cis-3-methoxycyclobutyl)carbonyl]pyrrolidin-3-yl}-8-(2-methylpyrimidin-5-yl)-9H-purin-6-amine] the same measures were less than 1 nM and greater than 10.
For `CCn1c(-c2cnc(C)nc2)nc2c(N[C@H]3CCN(C(=O)[C@@H]4C[C@@H]4C)C3)ncnc21` [Compound 2-90, 9-ethyl-N-[(3S)-1-{[(1R,2S)-2-methylcyclopropyl]carbonyl}pyrrolidin-3-yl]-8(2-methylpyrimidin-5-yl)-9H-purin-6-amine] the same measures were 1.3 nM and greater than 10.
For `CCCN1CC(Nc2ncnc3c2nc(-c2cnc(C)nc2)n3CC)CCC1=O` (racemic) [Compound 14-5, 5(S and R)-{[9-ethyl-8-(2-methylpyrimidin-5-yl)-9H-purin-6-yl]amino}-1-propylpiperidin-2-one] the same measures were 21 nM and greater than 10.
Regarding `CCn1c(-c2cnc(C)nc2)nc2c(N[C@H]3CCN(C(=O)C4CCOCC4)C3)ncnc21` [Compound 2-18, (S)-(3-((9-ethyl-8-(2-methylpyrimidin-5-yl)-9H-purin-6-yl)amino)pyrrolidin-1-yl)(tetrahydro-2H-pyran-4-yl)methanone], the IC50 on PI3K-delta was 2.4 nM. Besides, at PI3K-alpha, the “Selectivity versus PI3Kalpha” value is greater than 10.
For `CCC(=O)N1CC[C@H](Nc2ncnc3c2nc(-c2ccc(OC)c(F)c2)n3C)C1` [Compound 3-10, 8-(3-fluoro-4-methoxyphenyl)-9-methyl-N-[(3S)-1-propanoylpyrrolidin-3-yl]-9H-purin-6-amine] the same measures were 1.8 nM and greater than 10.
Consider `CCn1c(-c2cnc(C)nc2)nc2c(N[C@H]3CCN(C(=O)OCC(C)(C)C)C3)ncnc21` [Compound 13-4, 2,2-dimethylpropyl (3S)-3-{[9-ethyl-8-(2-methylpyrimidin-5-yl)-9H-purin-6-yl]amino}pyrrolidine-1-carboxylate], for which the IC50 on PI3K-delta was 8.2 nM. Further, the “Selectivity versus PI3Kalpha” value at PI3K-alpha is listed as greater than 10.
For `CCn1c(-c2cnc(C)nc2)nc2c(N[C@H]3CCN(C(=O)C4CC(O)C4)C3)ncnc21` (mixture of isomers) [Compound 2-63, (cis and trans)-3-{[(3S)-3-{[9-ethyl-8-(2-methylpyrimidin-5-yl)-9H-purin-6-yl]amino}pyrrolidin-1-yl]carbonyl}cyclobutanol], in that order: less than 1 nM and greater than 10.
As for `CCn1c(-c2cnc(C(C)(C)C)s2)nc2c(N(C)[C@H]3CCN(C(=O)OC(C)(C)C)C3)ncnc21` [Compound 1-7, (S)-tert-butyl 3-((8-(2-(tert-butyl)thiazol-5-yl)-9-ethyl-9H-purin-6-yl)(methyl)amino)pyrrolidine-1-carboxylate], the IC50 at PI3K-delta is 6.7 nM. For the same compound, the “Selectivity versus PI3Kalpha” value at PI3K-alpha was greater than 10.
For `CCn1ncc(-c2nc3c(N[C@H]4CCN(C(=O)OC(C)(C)C)C4)ncnc3n2C)c1C` [Compound 1-2, tert-butyl (3S)-3-{[8-(1-ethyl-5-methyl-1H-pyrazol-4-yl)-9-methyl-9H-purin-6-yl]amino}pyrrolidine-1-carboxylate], the IC50 at PI3K-delta worked out at 1.8 nM. Besides, the “Selectivity versus PI3Kalpha” value on PI3K-alpha is on record as greater than 10.
For `CCn1c(-c2ccc(C(F)(F)F)nc2)nc2c(N[C@H]3CCN(c4ccccn4)C3)ncnc21` [Compound 4-4, 9-ethyl-N-[(3S)-1-pyridin-2-ylpyrrolidin-3-yl]-8-[6-(trifluoromethyl)pyridin-3-yl]-9H-purin-6-amine] the same measures were less than 1 nM and greater than 10.
For `CCn1c(-c2cnc(C)nc2)nc2c(N[C@H]3CCN(C(=O)OC4CCCCC4)C3)ncnc21` [Compound 13-8, cyclohexyl (3S)-3-{[9-ethyl-8-(2-methylpyrimidin-5-yl)-9H-purin-6-yl]amino}pyrrolidine-l-carboxylate], in that order: 3.9 nM and greater than 10.
For the compound `CCn1c(-c2ccc(OC)nc2)nc2c(N[C@H]3CCN(C(=O)C4CC4)C3)ncnc21` [Compound 2-50, N-[(3S)-1-(cyclopropylcarbonyl)pyrrolidin-3-yl]-9-ethyl-8-(6-methoxypyridin-3-yl)-9H-purin-6-amine], the IC50 on PI3K-delta was less than 1 nM. Also, the “Selectivity versus PI3Kalpha” value on PI3K-alpha was greater than 10.
As for `CCC(=O)N1CC[C@H](Nc2ncnc3c2nc(-c2cnc(OC)c(C)c2)n3CC)C1` [Compound 2-9, (S)-1-(3-((9-ethyl-8-(6-methoxy-5-methylpyridin-3-yl)-9H-purin-6-yl)amino)pyrrolidin-1-yl)propan-1-one], the IC50 at PI3K-delta was less than 1 nM. The “Selectivity versus PI3Kalpha” value on PI3K-alpha is listed as greater than 10.
`CCn1c(C(=O)Nc2ccccc2)nc2c(N[C@H]3CCN(C(=O)C4CC4)C3)ncnc21` [Compound 6-18, 6-{[(3S)-1-(cyclopropylcarbonyl)pyrrolidin-3-yl]amino}-9-ethyl-N-phenyl-9H-purine-8-carboxamide]: the IC50 at PI3K-delta turned out to be 15 nM. In addition, the “Selectivity versus PI3Kalpha” value at PI3K-alpha is greater than 10.
For the compound `CCn1c(-c2cnn(CC(F)(F)F)c2)nc2c(N[C@H]3CCN(C(=O)C4CC4)C3)ncnc21` [Compound 3-36, N-[(3S)-1-(cyclopropylcarbonyl)pyrrolidin-3-yl]-9-ethyl-8-[1-(2,2,2-trifluoroethyl)-1H-pyrazol-4-yl]-9H-purin-6-amine], the IC50 at PI3K-delta was determined as 1.2 nM. The “Selectivity versus PI3Kalpha” value on PI3K-alpha is listed as greater than 10.
Turning to `CCn1c(-c2cnc(C)nc2)nc2c(N[C@H]3CCN(C(=O)NC4CCC4)C3)ncnc21` [Compound 12-22, (3S)-N-cyclobutyl-3-{[9-ethyl-8-(2-methylpyrimidin-5-yl)-9H-purin-6-yl]amino}pyrrolidine-1-carboxamide], the IC50 on PI3K-delta worked out at 5.3 nM. The “Selectivity versus PI3Kalpha” value on PI3K-alpha is on record as greater than 10.
For `CCC(=O)N1CC[C@H](Nc2ncnc3c2nc(-c2ccc(Cl)nc2)n3C)C1` [Compound 3-14, 8-(6-chloropyridin-3-yl)-9-methyl-N-[(3S)-1-propanoylpyrrolidin-3-yl]-9H-purin-6-amine], the IC50 at PI3K-delta was 2.1 nM. Moreover, the “Selectivity versus PI3Kalpha” value at PI3K-alpha is greater than 10.
In the case of `CCn1c(-c2ccc(OC)nc2)nc2c(N[C@H]3CCN(C(=O)OC(C)(C)C)C3)ncnc21` [Compound 1-23, tert-butyl (3S)-3-{[9-ethyl-8-(6-methoxypyridin-3-yl)-9H-purin-6-yl]amino}pyrrolidine-1-carboxylate], the IC50 at PI3K-delta is less than 1 nM. Also, on PI3K-alpha, the “Selectivity versus PI3Kalpha” value is given as greater than 10.
For the compound `CCn1c(-c2cnc(C)nc2)nc2c(N[C@H]3C[C@H](C(=O)N(C)C)N(C(=O)C4CC4)C3)ncnc21` [Compound 15-2, (4S)-1-(cyclopropylcarbonyl)-4-{[9-ethyl-8-(2-methylpyrimidin-5-yl)-9H-purin-6-yl]amino}-N,N-dimethyl-D-prolinamide], the IC50 at PI3K-delta stood at 14 nM. Besides, the “Selectivity versus PI3Kalpha” value at PI3K-alpha was greater than 10.
Take `CCn1c(-c2cnc(C)nc2)nc2c(N[C@H]3CCN(C(=O)OC)C3)ncnc21` [Compound 13-2, methyl (3S)-3-{[9-ethyl-8-(2-methylpyrimidin-5-yl)-9H-purin-6-yl]amino}pyrrolidine-l-carboxylate]: the IC50 at PI3K-delta was found to be 9.2 nM. In addition, the “Selectivity versus PI3Kalpha” value at PI3K-alpha is greater than 10.
For `CCn1c(-c2cnc(C)nc2)nc2c(N[C@H]3CCN(c4cccc(NC)n4)C3)ncnc21` [Compound 4-8, 9-ethyl-N-{(3S)-1-[6-(methylamino)pyridin-2-yl]pyrrolidin-3-yl}-8-(2-methylpyrimidin-5-yl)-9H-purin-6-amine], in that order: 2.3 nM and greater than 10.
On to `CCn1c(-c2cnc(C)nc2)nc2c(N[C@H]3C[C@H](C(=O)NCCO)N(c4ccccn4)C3)ncnc21` [Compound 15-12, (4S)-4-{[9-ethyl-8-(2-methylpyrimidin-5-yl)-9H-purin-6-yl]amino}-N-(2-hydroxyethyl)-1-pyridin-2-yl-D-prolinamide], for which the IC50 on PI3K-delta came to 4.6 nM. In addition, the “Selectivity versus PI3Kalpha” value on PI3K-alpha is recorded as greater than 10.
For `CCc1nc2c(N[C@H]3CCN(C(=O)C4CC4)C3)ncnc2n1CC` [Compound 7-23, N-[(3S)-1-(cyclopropylcarbonyl)pyrrolidin-3-yl]-8,9-diethyl-9H-purin-6-amine] the same measures were 120 nM and greater than 10.
Regarding `CCn1c(-c2cnc(C)nc2)nc2c(N[C@H]3CCN(c4ccc(C)cn4)C3)ncnc21` [Compound 4-3, 9-ethyl-N-[(3S)-1-(5-methylpyridin-2-yl)pyrrolidin-3-yl]-8-(2-methylpyrimidin-5-yl)-9H-purin-6-amine], the IC50 at PI3K-delta stood at 3.7 nM. The “Selectivity versus PI3Kalpha” value at PI3K-alpha was greater than 10.
